Marks after values point to notes of the source that are not given here.
Columns and labels:
[1] = system: B16F10 cells; experiment: MTT assay; assay type: cell-based, human; conditions: Mus musculus, B16-F10, B16F10 cells, 24 h and 48 h, read-out: half maximal inhibitory concentration (IC50)
Protocol: Normal human cell lines (CRL-2115, CRL-2120) as well as human cancer cell lines (NCM-460, He La, MCF-7, B16F10 and A549) were cultured according to the supplier's recommendations. To study the cytotoxicity of the ligands, after 80% confluence, cells were trypsinized with 0.1% trypsin-EDTA and harvested by centrifugation at 500× g. Serial dilutions of cells were made from 1×10^6 to 1×10^3 cells per ml. The cells were seeded in triplicate in a 96 well plate. The suspended cells were treated with 50 µM, 100 µM, 150 µM, 200 µM, 250 µM and 300 µM of each ligand, at two different time points (24 h and 48 h). Normal as well as tumor cells to which no ligand was added served as control. After incubation, MTT (100 µl, 5 mg mL^−1) solution was added to each well and the cell viability was determined by measuring the ability of cells to transform MTT to a purple coloured formazan dye. The absorbance of samples at 570 nm was measured using a UV-Visible spectrophotometer. Percentage of viable cells was calculated using the formula given below. [drawing 1] Where the OD570 (sample) corresponds to absorbance obtained from the wells treated with ligands and the OD570 (control) represents the absorbance from the wells in which no ligand was added.

[2] = system: A549; experiment: Cell count assay (trypan blue); assay type: cell-based, human; conditions: for Number of viable cells after 24 h of ligand treatment: A549, 24 h; for Number of viable cells after 48 h of ligand treatment: A549, 48 h;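 on Number of viable cells after 24 h of ligand treatment: each ligand tested at its own IC50 concentration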
Protocol: (§1) Normal and tumor cell lines were seeded at 20000–40000 cells/cm^2 with 0.2 mL/cm^2 media and incubated for 48 h at 37°C, 6% CO2, 95% relative humidity. […] After 24 h and 48 h of incubation, cells were washed with 300 µl PBS or 0.02% EDTA, trypsinized, followed by harvesting at 37°C. 200 µl cell suspension was transferred into 1.5 ml microcentrifuge tube. To the cell suspension, 300 µl PBS followed by 500 µl of 0.4% trypan blue solution was added. To get the homogenised solution, the microcentrifuge tube was gently tapped for 5 min, 20 µl of cell suspension was loaded in to a chamber of the haemocytometer.

[3] = system: B16F10; experiment: Cell count assay (trypan blue); assay type: cell-based, human; conditions: for Number of viable cells after 24 h of ligand treatment: B16F10, 24 h; for Number of viable cells after 48 h of ligand treatment: B16F10, 48 h
Protocol: as §1

[4] = system: MCF-7; experiment: Cell count assay (trypan blue); assay type: cell-based, human; conditions: for Number of viable cells after 24 h of ligand treatment: MCF-7, 24 h; for Number of viable cells after 48 h of ligand treatment: MCF-7, 48 h;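 on Number of viable cells after 48 h of ligand treatment: each ligand tested at its own IC50 concentration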
Protocol: as §1

[5] = system: telomerase reverse transcriptase (TERT); experiment: Western blot of telomerase expression in tumor tissues; assay type: in vivo, C57BL6/J mice; conditions: tumor tissue of tumor-induced mice, 216 h of treatment
Protocol: Western blot analysis was carried out to study the expression of telomerase in ligand treated as well as untreated tissues of tumor-induced mice. Total proteins were extracted from the tumor tissues into solubilisation buffer (7 M urea, 2 M thiourea, 4% CHAPS, 18 mM Tris–HCl, 14 mM Trizma base, 2 tablets EDTA protease inhibitor, 0.2% Triton-X, 50 mM DTT) following homogenization and sonication. Extracted proteins were quantified against BSA standard using an Amido black assay method. 40 µg of total protein obtained from different time points (48 h, 72 h and 216 h) were electrophoresed on a 10% SDS-PAGE and transferred onto a PVDF membrane using wet-transfer method. Immunoblot analysis of the telomerase reverse transcriptase (TERT) expression was performed using anti-TERT antibody (Pierce, Thermo Scientific) as primary antibody and anti-rabbit HP conjugated secondary antibodies (Pierce, Thermo Scientific). The immuno- blots were scanned using the ECL detection method to estimate the telomerase expression levels in the tissues of tumor-induced mice. The endogenous β-actin expression level was considered as control.

[6] = molecular target: HQF DNA d(TTAGGG)4; experiment: Isothermal titration calorimetry; assay type: binding, human; conditions: ITC; for Kd: quadruplex DNA, read-out: Kd, higher affinity interaction (mode-1); for K1 x 10^-7 / K2 x 10^-5: two-sites model, 100 mM KBPES pH 7.0; for K1 x 10^-7: mode-1, 25°C; for K2 x 10^-5: mode-2, 25°C
Protocol: (§2) When quadruplex DNA melts to form ssDNA structure, SG fluorescence intensity gradually reduces as SG has no binding to ssDNA. Each time, 5 µM of HQF DNA [d(T2AG3)4)], 5 µM of dsDNA (prepared by mixing equal concentration of poly-dA-dT and poly-dT-dA), 5 µM ssDNA ( poly dT alone) and 1 µM of each ligand was incubated at 4°C for 16 h, and used for melting studies. […] Affinity, stoichiometry and thermodynamic parameters for quadruplex-ligand complex were studied with 60 µM of ligand and 10 µM of HQF DNA using Microcal VP-ITC (Northampton, MA, USA). Ligand addition to G-quadruplex DNA was made every 180 seconds. Titration experiments were performed thrice and blank correction was made each time to minimize error.
On integrating the heats produced per injection, with respect to time and conversion to per mole basis, the binding isotherm (Figure 8A) corresponding to each ligand was obtained. […] After making blank correction, the heat data was fitted with “two-independent sites” model and analyzed using Origin 7.1 to calculate thermodynamic parameters.

[7] = system: HQF DNA [d(T2AG3)4]; experiment: SYBR Green melting study with HQF DNA; assay type: binding, human; conditions: for Tm of HQF DNA with ligand: 5 µM HQF DNA, 1 µM ligand, HQF DNA alone 27°C; for Tm: melting temperature of HQF DNA (5 µM) in presence of 1 µM ligand
Protocol: as §2

[8] = system: HQF DNA (human quadruplex forming DNA), d(TTAGGG)4 (DNA, G4) TTAGGGTTAGGGTTAGGGTTAGGG; experiment: SYBR Green fluorescence melting; conditions: 1 µM ligand, 5 µM DNA, melting buffer not stated

Cc1cn([C@H]2C[C@H](n3cc(-c4ccccc4)nn3)[C@@H](CO)O2)c(=O)[nH]c1=O [Ligand L2]
IC50 [1]: ~125 µM | Number of viable cells after 24 h of ligand treatment [2]: ++/++ (Viable cells in the range of 50%–60%) | Number of viable cells after 48 h of ligand treatment [2]: ++/++ (Viable cells in the range of 50%–60%) | Number of viable cells after 24 h of ligand treatment [3]: ++ (Viable cells in the range of 50%–60%) | Number of viable cells after 48 h of ligand treatment [3]: +++ (Viable cells which are equal or less than 30%) | Number of viable cells after 24 h of ligand treatment [4]: + (Viable cells in the range of 80%–90%) | Number of viable cells after 48 h of ligand treatment [4]: ++ (Viable cells in the range of 50%–60%) | percentage of reduction of telomerase expression [5]: 88% | Kd [6]: ~0.1 µM | K1 x 10^-7 [6]: 1.35 (± 0.1) | K2 x 10^-5 [6]: 2.61 (± 0.3) | Tm of HQF DNA with ligand [7]: 42 °C | Tm [7]: 42 ^o C | ΔTm ([8]; derived from two Tm (42 and 27 °C)): 15 °C

Cc1cn([C@H]2C[C@H](N=[N+]=[N-])[C@@H](CO)O2)c(=O)[nH]c1=O [Ligand L1, 1-(4-azido 5-(hydroxylmethyl)tetrahydrofuran-2-yl)-5-methyl pyrimidi-ne-2,4(1H,3H)-dione, reference compound]
IC50 [1]: ~200 µM | Number of viable cells after 24 h of ligand treatment [2]: + (Viable cells in the range of 80%–90%) | Number of viable cells after 48 h of ligand treatment [2]: ++ (Viable cells in the range of 50%–60%) | Number of viable cells after 24 h of ligand treatment [3]: ++ (Viable cells in the range of 50%–60%) | Number of viable cells after 48 h of ligand treatment [3]: +++ (Viable cells which are equal or less than 30%) | Number of viable cells after 24 h of ligand treatment [4]: + (Viable cells in the range of 80%–90%) | Number of viable cells after 48 h of ligand treatment [4]: ++ (Viable cells in the range of 50%–60%) | percentage of reduction of telomerase expression [5]: 80% | K1 x 10^-7 [6]: 0.72 (± 0.3) | K2 x 10^-5 [6]: 2.14 (± 0.2) | Tm of HQF DNA with ligand [7]: 28 °C | Tm [7]: 28 ^o C | ΔTm ([8]; derived from two Tm (28 and 27 °C)): 1 °C

Cc1cn([C@H]2C[C@H](n3cc(-c4ccc(Cl)cc4)nn3)[C@@H](CO)O2)c(=O)[nH]c1=O [Ligand L3, 1-(4-(4-(4-chlorophenly)-1H-1,2,3-triazole-1-yl)-5-(hydroxymethyl)tetrahydrofuran-2-yl)-5-methylpyrimidine-2,3(1H,3H)-dione]
IC50 [1]: 50 µM | Number of viable cells after 24 h of ligand treatment [2]: ++ (Viable cells in the range of 50%–60%) | Number of viable cells after 48 h of ligand treatment [2]: +++ (Viable cells which are equal or less than 30%) | Number of viable cells after 24 h of ligand treatment [3]: ++ (Viable cells in the range of 50%–60%) | Number of viable cells after 48 h of ligand treatment [3]: +++ (Viable cells which are equal or less than 30%) | Number of viable cells after 24 h of ligand treatment [4]: ++/++ (Viable cells in the range of 50%–60%) | Number of viable cells after 48 h of ligand treatment [4]: ++/++ (Viable cells in the range of 50%–60%) | percentage of reduction of telomerase expression [5]: 95% | Kd [6]: ~0.1 µM | K2 x 10^-5 [6]: 2.82 (±0.5) | Tm of HQF DNA with ligand [7]: 52 °C | Tm [7]: 52 ^o C | ΔTm ([8]; derived from two Tm (52 and 27 °C)): 25 °C

From paper PMC3747139 (PLoS ONE, 2013)
